Tests used:
[1] = Particle size distribution measurement (WET method, laser diffraction, Mastersizer); format: physicochemical; conditions: PSD wet method, dispersant demineralised water, Triton X100
Source text: Particle size distribution (PSD), summarized by D10, D50 and D90 values, were obtained by using the WET method, the details of which are as follows: • Material used: • Equipment: Mastersizer 300 (hydro MV) • Dispersant: demineralised water • Surfactant: Triton X100 • No saturation • Operational parameters: • optical model: Particles type (MS3000 only) no-spherical • Mie: • refractive index of particles: 1.443 • absorption index of particles: 0.1 • refractive index of the dispersant: 1.33 • Measurement: • Measurement time: 10 seconds • Measurement time of the background: 10 seconds • Stirrer speed: 1200 rpm +/−400 • Obscuration range: 5-19% • Delay time measurement: 1-5 minutes • Model: standard • Analysis precision: normal • Sample preparation: • Weight about 100 mg of product in a glass beaker • Add 2-4 drops of surfactant • Complete with the dispersant until the 20 mL mark of the 50 mL graduated beaker • Shake for 3 seconds to 60 seconds • Put in the external ultrasound cell • Sonication duration: 2-3minutes
After the milling step 5, the milled sample thus obtained from example 4 was characterized by measurement of its particle size distribution (see table 3 below) according to the method as defined above.
For comparison purposes, the measurement of the particle size distribution has also been carried out for the native 8-chloro-N-(4-(trifluoromethoxy)phenyl)quinolin-2-amine (Form I) obtained from step 4 of example 4 above (i.e. product obtained from example 4 before milling).

[2] = USP <711> / Ph. Eur. 2.9.3 pharmacopeial dissolution profile (apparent dissolution test, paddle apparatus); format: physicochemical; conditions: for solubility (percentage dissolved) at 45 min: 50 mg drug substance, 900 mL 0.25% CTAB in 0.1 M HCl, paddle USP type II 100 rpm
Method: Pharmacopeial (USP <711>, Ph. Eur. 2.9.3) dissolution profiles of the drug substance were established.
A dissolution experiment evaluates the rate and extent that a compound forms a solution under carefully controlled conditions and using paddle dissolution apparatus fulfilling USP <711>, Ph. Eur. 2.9.3 requirements.
The dissolution profiles of 50 mg from a native ABX464 and one milled ABX 464 (8000 rpm) drug substance (DS) in the dissolution media have been compared.
The dissolution conditions and materials were as follows: • Equipment • Class A glassware • Analytical scale • Automatic pipette • UPLC system consisting of a binary or quaternary pump, an automated injector, a thermostated column oven, and a UV or DAD detector controlled by the Waters Empower® software • AT 7 smart (Sotax) or equivalent dissolution apparatus with USP type II paddle • Chemicals • water (dissolution medium) Demineralized water purified by Milli_Q Millipore (type II) • Demineralized water purified by Milli_Q Millipore • syringe filter Spartan 30 mm HPLC-Certified syringe Filter, 0.2 μm, RC (regenerated cellulose) • Acetonitrile Biosolve (UPLC grade) (ACN) • Cetyl trimethylammonium bromide (CTAB) • Hydrochloric acid (HCl) 1M (AVS tritinorm) • Formic acid (LCMS grade) • Chromatographic conditions • Column: Acquity UPLC BEH C18, 2.1 mm ID*50 mm, 1.7 μm pore size or equivalent • Mobile phase A: 0.1% (v/v) Formic acid in water • Mobile phase B: ACN • Isocratic mode 35% A/65% B • Flow rate 0.3 mL/min • Analytical run time: 5 min • Volume injection: 5 μL • Detection: UV at 220 nm • Autosampler: room temperature • Column temperature: 40° C. • Needle wash: Water/ACN (50/50 v/v) • Diluent • Dissolution medium: 0.25% CTAB in 0.1 M HCl. Transfer 25 g of CTAB into a 10 000 mL volumetric flask, add 1 000 mL of HCl 1M and dilute to volume with water (different amounts and volumes may be used as long as the final concentration remains the same) • Solutions
Accurately weight 22.2 mg of the drug substance into a 100 mL volumetric flask, dissolve in about 5 mL ACN and dilute to volume with diluent. • Dissolution conditions • Dissolution medium: 0.25% CTAB in 0.1 M HCl • Temperature: 37° C. +/−0.5° C. • Agitation: 100 rpm +/−1 rpm • Type of agitation: Paddle (USP type II) • Volume of dissolution medium: 900 mL • Sampling time: 5, 10, 15, 30, 45, 60, 75 and 90 min • Sampling volume 5 ml (discard the first 3 ml) • Test on 6 vessels • place the sample (50 mg) into each dissolution vessel
The non-corrected dissolved percentages were calculated as follows: […]
The corrected dissolved percentage were calculated as follows: […]

[3] = listed as Native (not milled) compound

Particle size distribution D10 [1, 3] [μm]	Particle size distribution D50 [1, 3] [μm]	Particle size distribution D90 [1, 3] [μm]	solubility (percentage dissolved) at 45 min ([2]; 37° C., 45 min) [%]	Particle size distribution D10 [1] [μm]	Particle size distribution D50 [1] [μm]	Particle size distribution D90 [1] [μm]	Particle size distribution D10 ([1]; listed as milled ABX464) [μm]	Particle size distribution D50 ([1]; listed as milled ABX464) [μm]	Particle size distribution D90 ([1]; listed as milled ABX464) [μm]	solubility compared to the native compound (FIG. 2 dissolution profile) ([2]; milled at 8000 rpm vs native, 0.25% CTAB in 0.1 M HCl, 37° C.)	increase of solubility (percentage dissolved) of milled compound compared to the native compound at 45 min ([2]; same dissolution conditions, 45 min, milled (8000 rpm) vs native)	Compound
24.5	164.0	444.0	57.3									FC(F)(F)Oc1ccc(Nc2ccc3cccc(Cl)c3n2)cc1 [native compound, 8-chloro-N-(4-(trifluoromethoxy)phenyl)quinolin-2-amine]
			95.4	6.8	50.0	122.0	6.8	50.0	122.0	improved solubility	about 38.1%	FC(F)(F)Oc1ccc(Nc2ccc3cccc(Cl)c3n2)cc1 [milled compound, 8-chloro-N-(4-(trifluoromethoxy)phenyl)quinolin-2-amine]
